Reference: US8268814B2, “Substituted sulfonamide compounds” (Gruenenthal GmbH, priority 2008, dated 2012)

Columns and labels:
[1] = target: T1, human B1R receptor (hB1R) (Homo sapiens, UniProt P46663); test: Functional FLIPR Ca2+ assay on the bradykinin 1 receptor, human (hB1R CHO K1 cells); type: cell-based; conditions: test substance 10 μM; CHO K1 cells transfected with human B1R gene; agonist Lys-Des-Arg9-bradykinin at EC80; % inhibition compared with maximum achievable inhibition; read-out: B1R antagonism, human (10 μM] % inhibition
T1 construct: expressed in transfected cells; host or cells: CHO K1 cells (Chinese hamster ovary), stably transfected
T1 sequence (P46663 1-353): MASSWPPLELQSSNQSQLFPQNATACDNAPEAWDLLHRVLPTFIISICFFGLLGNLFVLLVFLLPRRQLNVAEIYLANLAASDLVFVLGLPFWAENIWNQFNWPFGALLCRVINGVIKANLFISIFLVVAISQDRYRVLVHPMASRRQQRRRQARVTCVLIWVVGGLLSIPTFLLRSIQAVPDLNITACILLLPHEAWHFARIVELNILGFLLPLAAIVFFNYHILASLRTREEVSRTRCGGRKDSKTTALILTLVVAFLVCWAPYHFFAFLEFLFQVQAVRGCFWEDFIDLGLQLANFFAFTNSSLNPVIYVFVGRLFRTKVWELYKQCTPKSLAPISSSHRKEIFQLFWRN
Summary of the method: (§1)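 Stably transfected CHO K1 cells expressing human or rat B1R, Fluo-4-loaded, Ca2+ influx read by FLIPR (peak fluorescence). Compounds (10 μM for % activation) preincubated 10-20 min, then EC80 agonist added: Lys-Des-Arg9-bradykinin for human, Des-Arg9-bradykinin for rat; % inhibition versus maximal inhibition, IC50 from concentration series.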

[2] = target: T2, B1R receptor of the rat (rB1R) (Rattus norvegicus, UniProt P97583); test: Functional FLIPR Ca2+ assay on the bradykinin 1 receptor, rat (rB1R CHO K1 cells); type: cell-based; conditions: test substance 10 μM; CHO K1 cells transfected with rat B1R gene; agonist Des-Arg9-bradykinin at EC80; % inhibition compared with maximum achievable inhibition; read-out: B1R antagonism, rat [10 μM] % inhibition
T2 construct: expressed in transfected cells; host or cells: CHO K1 cells (Chinese hamster ovary), stably transfected
T2 sequence (P97583 1-337): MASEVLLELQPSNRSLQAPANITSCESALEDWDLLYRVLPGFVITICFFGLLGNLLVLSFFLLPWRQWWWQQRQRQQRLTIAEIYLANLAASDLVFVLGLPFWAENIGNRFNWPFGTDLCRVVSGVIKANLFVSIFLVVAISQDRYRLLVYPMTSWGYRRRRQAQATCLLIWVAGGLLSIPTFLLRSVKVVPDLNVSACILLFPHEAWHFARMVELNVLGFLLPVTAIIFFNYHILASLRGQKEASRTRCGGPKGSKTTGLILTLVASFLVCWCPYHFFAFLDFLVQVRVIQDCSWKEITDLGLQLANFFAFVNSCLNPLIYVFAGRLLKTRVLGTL
Summary of the method: as §1

SMILES	inhibition at 10 µM [1] [%]	inhibition at 10 µM [2] [%]
COc1cc(C)c(S(=O)(=O)N2CCCCC2COCC(=O)N2CCc3sccc3C2c2ccc(F)cc2)c(C)c1 (stereo not drawn) [Example 22, 1-(4-(4-fluorophenyl)-6,7-dihydrothieno[3,2-c]pyridin-5(4H)-yl)-2-((1-(4-methoxy-2,6-dimethylphenylsulfonyl)piperidin-2-yl)methoxy)ethanone]	96	100
O=C(CC(NS(=O)(=O)c1ccc2ccccc2c1)c1ccccc1)N1CCc2nc(Cc3ccncc3)sc2C1 (racemic) [Example 42, N-(3-oxo-1-phenyl-3-(2-(pyridin-4-ylmethyl)-6,7-dihydrothiazolo[5,4-c]pyridin-5(4H)-yl)propyl)naphthalene-2-sulfonamide]	14	79
COc1cc(C)c(S(=O)(=O)N2CCCCC2COCC(=O)N2CCc3sccc3C2c2ccccc2C)c(C)c1 (stereo not drawn) [Example 12, 2-((1-(4-methoxy-2,6-dimethylphenylsulfonyl)piperidin-2-yl)methoxy)-1-(4-o-tolyl-6,7-dihydrothieno[3,2-c]pyridin-5(4H)-yl)ethanone]	64	104
COc1cc(C)c(S(=O)(=O)N(C)CCOCC(=O)N2CCc3sc(CN4CCCCC4)cc3C2)c(C)c1 [Example 28, 4-Methoxy-N,2,6-trimethyl-N-(2-(2-oxo-2-(2-(piperidin-1-yl-methyl)-6,7-dihydrothieno[3,2-c]pyridin-5(4H)-yl)ethoxy)ethyl)benzene-sulfonamide]	100	109
Cc1cc(S(=O)(=O)N2CCCCC2CCC(=O)N2CCc3sccc3C2c2ccccc2C)c(C)cc1Cl (stereo not drawn) [Example 11, 3-(1-(4-chloro-2,5-dimethylphenylsulfonyl)piperidin-2-yl)-1-(4-o-tolyl-6,7-dihydrothieno[3,2-c]pyridin-5(4H)-yl)propan-1-one]	7	60
COc1cc(C)c(S(=O)(=O)N2CCCCC2COCC(=O)N2CCc3nc(-c4ccncc4)sc3C2)c(C)c1 (stereo not drawn) [Example 48, 2-((1-(4-methoxy-2,6-dimethylphenylsulfonyl)piperidin-2-yl)methoxy)-1-(2-(pyridin-4-yl)-6,7-dihydrothiazolo[5,4-c]pyridin-5(4H)-yl)ethan-1-one]	100	94
O=C(CC1CCCCN1S(=O)(=O)c1cccc(C(F)(F)F)c1)N1CCc2nc(Cc3ccncc3)sc2C1 (stereo not drawn) [Example 40, 1-(2-(pyridin-4-ylmethyl)-6,7-dihydrothiazolo[5,4-c]pyridin-5(4H)-yl)-2-(1-(3-(trifluoromethyl)phenylsulfonyl)piperidin-2-yl)ethan-1-one]	51	90
CCC1c2ccsc2CCN1C(=O)COCCN(C)S(=O)(=O)c1c(C)cc(OC)cc1C (stereo not drawn) [Example 18, N-(2-(2-(4-Ethyl-6,7-dihydrothieno[3,2-c]pyridin-5(4H)-yl)-2-oxoethoxy)ethyl)-4-methoxy-N,2,6-trimethyl benzenesulfonamide]	99	109
Cc1cc(S(=O)(=O)N2CCCCC2CCC(=O)N2CCc3sccc3C2c2cccc(F)c2)c(C)cc1Cl (stereo not drawn) [Example 35, 3-(1-(4-chloro-2,5-dimethylphenylsulfonyl)piperidin-2-yl)-1-(4-(3-fluorophenyl)-6,7-dihydrothieno[3,2-c]pyridin-5(4H)-yl)propan-1-one]	41	3
COc1cc(C)c(S(=O)(=O)N2CCCC[C@H]2COCC(=O)N2CCc3sc(CN4CCCC4)cc3C2)c(C)c1 [Example 62, 2-[[(2S)-1-[(4-methoxy-2,6-dimethyl-phenyl)sulfonyl]-piperidin-2-yl]-methoxy]-1-[2-(pyrrolidin-1-yl-methyl)-4,5,6,7-tetrahydro-thieno[3,2-c]pyridin-5-yl]-ethanone]	100	107
COc1cc(C)c(S(=O)(=O)N(C)CCOCC(=O)N2CCc3onc(CN4CCCCC4)c3C2)c(C)c1 [Example 13, 4-methoxy-N,2,6-trimethyl-N-(2-(2-oxo-2-(3-(piperidin-1-ylmethyl)-6,7-dihydroisoxazolo[4,5-c]pyridin-5(4H)-yl)ethoxy)ethyl)benzenesulfonamide]	56	99
Cc1cc(S(=O)(=O)N2CCCCC2CCC(=O)N2CCc3sccc3C2c2ccccc2)c(C)cc1Cl (stereo not drawn) [Example 16, 3-(1-(4-chloro-2,5-dimethylphenylsulfonyl)piperidin-2-yl)-1-(4-phenyl-6,7-dihydrothieno[3,2-c]pyridin-5(4H)-yl)propan-1-one]	43	81
COc1cc(C)c(S(=O)(=O)N2CCCCC2COCC(=O)N2CCc3sc(CN4CCCCC4)cc3C2)c(C)c1 (stereo not drawn) [Example 27, 2-((1-(4-Methoxy-2,6-dimethylphenylsulfonyl)piperidin-2-yl)methoxy)-1-(2-(piperidin-1-ylmethyl)-6,7-dihydrothieno[3,2-c]pyridin-5(4H)-yl)ethanone]	100	106
COc1cc(C)c(S(=O)(=O)N(C)CCOCC(=O)N2CCc3nc(-c4ccncc4)sc3C2)c(C)c1 [Example 49, 4-methoxy-N,2,6-trimethyl-N-(2-(2-oxo-2-(2-(pyridin-4-yl)-6,7-dihydrothiazolo[5,4-c]pyridin-5(4H)-yl)ethoxy)ethyl)benzenesulfonamide]	99	95
Cc1cccc(Cl)c1S(=O)(=O)N1CCCC[C@H]1COCC(=O)N1CCc2sc(CN3CCCCC3)cc2C1 [Example 59, 2-[[(2S)-1-[(2-chloro-6-methyl-phenyl)sulfonyl]-piperidin-2-yl]-methoxy]-1-[2-(piperidin-1-yl-methyl)-4,5,6,7-tetrahydro-thieno[3,2-c]pyridin-5-yl]-ethanone]	100	104
COc1cc(C)c(S(=O)(=O)N2CCCCC2COCC(=O)N2CCc3sc(CN4CCN(C)CC4)cc3C2)c(C)c1 (stereo not drawn) [Example 50, 2-((1-(4-methoxy-2,6-dimethylphenylsulfonyl)piperidin-2-yl)methoxy)-1-(2-((4-methylpiperazin-1-yl)methyl)-6,7-dihydrothieno[3,2-c]pyridin-5(4H)-yl)ethan-1-one]	100	102
Cc1cc(S(=O)(=O)N2CCCCC2CCC(=O)N2CCc3sccc3C2c2cccc(C(F)(F)F)c2)c(C)cc1Cl (stereo not drawn) [Example 34, 3-(1-(4-chloro-2,5-dimethylphenylsulfonyl)piperidin-2-yl)-1-(4-(3-(trifluoromethyl)phenyl)-6,7-dihydrothieno[3,2-c]pyridin-5(4H)-yl)propan-1-one]	29	57
COc1cc(C)c(S(=O)(=O)N(C)CCOCC(=O)N2CCc3nc(Cc4ccncc4)sc3C2)c(C)c1 [Example 39, 4-methoxy-N,2,6-trimethyl-N-(2-(2-oxo-2-(2-(pyridin-4-ylmethyl)-6,7-dihydrothiazolo[5,4-c]pyridin-5(4H)-yl)ethoxy)ethyl)benzenesulfonamide]	100	99
COc1cc(C)c(S(=O)(=O)N2CCCCC2COCC(=O)N2CCc3sccc3C2c2ccncc2)c(C)c1 (stereo not drawn) [Example 36, 2-((1-(4-methoxy-2,6-dimethylphenylsulfonyl)piperidin-2-yl)methoxy)-1-(4-(pyridin-4-yl)-6,7-dihydrothieno[3,2-c]pyridin-5(4H)-yl)ethanone]	100	100
COc1cc(C)c(S(=O)(=O)N2CCCCC2COCC(=O)N2CCc3onc(-c4ccc(Cl)cc4)c3C2)c(C)c1 (stereo not drawn) [Example 24, 1-(3-(4-chlorophenyl)-6,7-dihydroisoxazolo[4,5-c]pyridin-5(4H)-yl)-2-((1-(4-methoxy-2,6-dimethylphenylsulfonyl)piperidin-2-yl)methoxy)ethanone]	73	100
COc1cc(C)c(S(=O)(=O)N2CCCCC2COCC(=O)N2CCc3sccc3C2c2ccccc2)c(C)c1 (stereo not drawn) [Example 15, 2-((1-(4-methoxy-2,6-dimethylphenylsulfonyl)piperidin-2-yl)methoxy)-1-(4-phenyl-6,7-dihydrothieno[3,2-c]pyridin-5(4H)-yl)ethanone]	69	98
